The source of these data is patent EP0551662A1, “Benzofuranyl- and thiophenylmethylthio-alcanecarboxylic acid derivatives” (BAYER AG, priority 1992, dated 1993).

A word on the inhibition: it is the drop in the measured response relative to a control, in per cent.

The target in one test is T1, NADPH oxidase (Homo sapiens, UniProt P04839).
T1 construct: endogenous in cells; host or cells: neutrophils, PMA-stimulated, sonicated; membrane fraction
T1 sequence (P04839 2-570 limits assumed): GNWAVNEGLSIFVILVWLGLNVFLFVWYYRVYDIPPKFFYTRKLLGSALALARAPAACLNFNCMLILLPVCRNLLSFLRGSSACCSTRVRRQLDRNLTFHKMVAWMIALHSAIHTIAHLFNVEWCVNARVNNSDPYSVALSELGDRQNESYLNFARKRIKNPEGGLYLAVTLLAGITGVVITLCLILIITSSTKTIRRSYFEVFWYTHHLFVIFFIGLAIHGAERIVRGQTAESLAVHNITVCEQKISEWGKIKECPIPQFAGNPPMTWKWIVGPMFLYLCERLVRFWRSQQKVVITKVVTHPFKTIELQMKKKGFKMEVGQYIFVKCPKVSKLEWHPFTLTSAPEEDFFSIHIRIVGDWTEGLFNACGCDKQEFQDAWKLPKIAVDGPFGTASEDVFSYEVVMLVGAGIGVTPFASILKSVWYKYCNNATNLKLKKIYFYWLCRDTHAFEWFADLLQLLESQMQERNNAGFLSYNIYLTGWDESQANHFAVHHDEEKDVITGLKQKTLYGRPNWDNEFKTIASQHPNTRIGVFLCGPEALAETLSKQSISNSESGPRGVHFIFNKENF
T1 sequence (P13498 2-195 partner limits assumed): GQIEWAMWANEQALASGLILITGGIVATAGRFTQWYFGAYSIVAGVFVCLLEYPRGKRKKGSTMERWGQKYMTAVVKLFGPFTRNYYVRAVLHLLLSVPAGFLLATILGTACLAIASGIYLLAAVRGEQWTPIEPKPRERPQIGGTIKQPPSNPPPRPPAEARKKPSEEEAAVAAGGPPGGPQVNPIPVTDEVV
Kind of test: NADPH oxidase assay in membrane fractions of PMA-stimulated neutrophils. The test is classed as biochemical. The conditions noted are these: final concentration of 33 µM of the test substance. As for the experimental part:
3. Inhibition of myeloperoxidase The compounds according to the invention were tested for their action on human neutrophil myeloperoxidase activity by the established method of Bos, A.J. et al., Infection and Immunity, 1981, 32 (2), 427-431. 4. Xanthine oxidase assay Equal parts of the substrate (7.5 mM hypoxanthine) were incubated at 25°C with the compounds according to the invention or carrier, and 10⁻⁵ M luminol and the enzyme xanthine oxidase were added immediately before starting the luminescence measurement. The formation of superoxide was then measured for 140 sec in the 1251 luminometer. The activity was in each case measured against xanthine oxidase in the presence or absence of the compounds according to the invention by monitoring the growth of the absorption at 292 nm due to the formation of uric acid. 5. Determination of the specificity When neutrophils are activated by PMA or FMLP, they release the lysosomal enzyme beta-glucuronidase. […] Using a concentration of 10⁶ cells ml⁻¹, the compounds according to the invention were tested in parallel using a cell preparation thereof to gauge their capability to inhibit FMLP-induced superoxide production and FMLP-induced beta-glucuronidase release. 6. NADPH oxidase assay Neutrophils were stimulated with PMA and treated with ultrasound, and a membrane fraction was prepared. […]

Another test relates to mitochondrial fraction. Nature of the test: Mitochondrial substrate oxidation assay (oxygen electrode). The test is classed as biochemical. To be noted: NADPH oxidation by mitochondria, final concentration of 300 µM of the test substance, guinea pig hearts. Here is the method:
7. Mitochondrial substrate oxidation assay A mitochondrial fraction was prepared from finely-cut guinea pig hearts. […] The compounds according to the invention were tested to gauge their inhibition of cell respiration by measurement of their effect on the oxidation of these two substances at a concentration of up to 100 µg/ml⁻¹. % inhibition of NADPH oxidation by mitochondria at a final concentration of 300 µM of the test substance Table C

Test [1] has as its system polymorphonuclear granulocytes. Nature of the test: FMLP-induced chemiluminescence of polymorphonuclear granulocytes (inhibition of FMLP-stimulated production of superoxide radical anions). The conditions noted are these: human PMN. The test is classed as cell-based. Here is the method: 1. Preparation of human PMN Blood was taken from healthy subjects by venous puncture and neutrophils were purified by dextran sedimentation and resuspended in the buffered medium. 2. Inhibition of FMLP-stimulated production of superoxide radical anions. Neutrophils (2.5 × 10⁵ ml⁻¹) were mixed with the compounds according to the invention in dimethyl sulphoxide (DMSO), the final concentration of the compounds according to the invention being 10 µM and the DMSO concentration being 1% v/v. After addition of luminol, final concentration about 10⁻⁵M and 33 µg/ml of cytochalasin B, the cells were stimulated with a final concentration of about 5 × 10⁻⁸ M FMLP. Measurement of the chemiluminescence peaks was carried out using an LKB 1251 luminometer. The inhibition of the superoxide and the reduction of cytochrome C by FMLP-stimulated cells was likewise measured. Neutrophils (2.6 × 10⁵ ml⁻¹) were mixed with the compounds according to the invention as in the chemiluminescence experiment. Cytochrome C with a concentration of […] is also present. The superoxide-dependent cytochrome C reduction was measured using a Molecular Devices Thermomax plate reader. The inhibition of superoxide production was calculated as follows: [formula] […]

At NADPH oxidase, `COc1ccc(C(=O)c2oc3ccccc3c2CSCCC(=O)O)cc1C(=O)NS(=O)(=O)c1ccccc1C` [Example 17, 2-[4-Methoxy-3-(2-tolylsulphonamide-carbonyl)-benzoyl]-3-[(2-carboxyethyl)thiomethyl]benzo[b]furan] came in with an inhibition at 33 µM of 21 ± 7%. In addition, the “% inhibition (mitochondrial respiration)” value in the test on mitochondrial fraction worked out at 24 ± 2%. Besides, in test [1] (10 µM of the test substance), the inhibition at 10 µM is 96 ± 2%. The IC50 in test [1] (read-out: IC₅₀) worked out at 0.7 µM.
With `COc1ccc(C(=O)c2oc3ccccc3c2CSCCC(=O)O)cc1C(=O)O` [Example 31], testing at 33 µM at NADPH oxidase gave an inhibition of 20%. In addition, the “% inhibition (mitochondrial respiration)” value in the test on mitochondrial fraction is listed as 0 ± 7%.
